Results: patent US20060234909A1, “Compositions and methods for increasing drug efficiency” (priority 2003, published 2006)
Primed or numbered codes have the meaning given here. * marks the point of attachment. 10Ca‑PXL = paclitaxel conjugated at C10 via a carbamate; 3Am‑VBL = vinblastine (VBL) conjugate; PEG(11) = PEG(11) linker; 3Am = not defined here; PEG(13) = PEG13 linker; Piv = CC(C)(C)C(=O)*; VBL = vinblastine

What was measured:
[1] = system: Normal human foreskin fibroblasts (HFF); conditions: read-out: HFF (EC50 Ave) ML; HFF, ML (monolayer)
MCF-7 breast carcinoma = test: Cytotoxicity assay (monolayer), MCF-7; type: cell-based; conditions: MCF7, ML (monolayer); read-out: MCF7 (EC50 Ave) ML;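 further: cells treated 72 h with 6-8 compound doses versus DMSO vehicle controls, EC50 fitted by 4-parameter dose-response curves, averaged across all tests and lots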
tubulin = test: Fluorescence-based tubulin polymerization assay (MPA; enhancement for paclitaxel, inhibition for vinblastine); type: biochemical
Method in brief: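 Tubulin polymerisation was followed by fluorescence (ex 360/em 405 nm) with 1 mg/ml BSA in all assays. For paclitaxel conjugates, glycerol was omitted. Parent drugs and conjugates were tested at 0.75, 1.5, 3 and 10 micromolar final, and values come from the linear range of the dose responses.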

HUVEC = test: Cytotoxicity assay (monolayer), HUVEC; type: cell-based; conditions: ML (monolayer), read-out: HUVEC (EC50 Ave) ML
[2] = system: HT-29 colorectal carcinoma; test: Cytotoxicity assay (monolayer), HT-29; type: cell-based; conditions: HT29, ML (monolayer); read-out: HT29 (EC50 Ave) ML;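 further: monolayer cultures tested in triplicate, compound exposure for three days against DMSO vehicle controls, EC50 fitted from dose-response curves and averaged across all tests and lots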
Akt = Akt (Homo sapiens, UniProt P31749); test: Akt kinase assay (PKLight ATP utilization, substrate phosphorylation as % of parent peptide); type: biochemical; set-up: purchased Upstate (Charlottesville, Va.) 14-276
Method: Another test may involve monitoring the consumption of ATP. For example, ATP concentrations at time 0 or after 4 hour incubation may be monitored by luciferase reaction (PKLight kit obtained from Cambrex Corporation, One Meadowlands Plaza, East Rutherford, N.J. 07073), which generate a luminescence readout in the presence of ATP. Assays are initiated by mixing a kinase and a peptide in the presence of 40 μM ATP. After 4 hour of incubation at 30° C., PKLight reagent is added and mixed well, and luminescence readout measured. The rate of peptide phosphorylation is then directly related to the rate of decrease in the observed luminescence. Based on the first test, linkers of appropriate lengths and peptides with an effective amount of kinase activity which may be expected to be retained in the drug conjugate may be found.
Human Src (#14-326) and Akt (#14-276) kinases were purchased from Upstate (Charlottesville, Va.). Kinase reactions were carried out in 50 μl kinase reaction cocktail (25 mM Tris-HCl, pH 7.5, 5 μM β-glycerophosphate, 2 mM DTT, 0.1 mM Na3VO4, 10 mM MgCl2, 1 mg/ml BSA, […], 0.5 to 1.0 units enzyme). Substrates (peptide or drug-peptide conjugate in […]) were added (25, 50 and 100 μM) and the reaction was incubated for 2-5 hours at 30° C. PKLight reagent (23 μl) (Cambrex BioSciences, Rockland, Me.) was mixed with […] of the above kinase reaction and ATP utilization relative to no substrate and no ATP controls was determined by measuring luminescence with a SpectraMax Gemini EM plate reader (Molecular Devices, Sunnyvale, Calif.). Peptide substrates for Src and Akt have been described. For examples, see Lou et al. Letters in Peptide Science, 2, 289-296 (1995); Lou et al. Bioorganic & Medicinal Chemistry, 4, 677-682 (1996); Alessi et al. FEBS Letters, 399, 333-338 (1996). Substrate phosphorylation potential was determined from the linear portion of the substrate concentration dose response as a percentage of the activity observed with the parent peptide used for drug conjugation.

MCF-7 cells = conditions: read-out: MCF7 (EC50 Ave) SA; MCF7, SA (soft agar)
HT-29 cells = conditions: read-out: HT29 (EC50 Ave) SA; HT29, SA (soft agar)

Akt, sequence (P31749 whole entry): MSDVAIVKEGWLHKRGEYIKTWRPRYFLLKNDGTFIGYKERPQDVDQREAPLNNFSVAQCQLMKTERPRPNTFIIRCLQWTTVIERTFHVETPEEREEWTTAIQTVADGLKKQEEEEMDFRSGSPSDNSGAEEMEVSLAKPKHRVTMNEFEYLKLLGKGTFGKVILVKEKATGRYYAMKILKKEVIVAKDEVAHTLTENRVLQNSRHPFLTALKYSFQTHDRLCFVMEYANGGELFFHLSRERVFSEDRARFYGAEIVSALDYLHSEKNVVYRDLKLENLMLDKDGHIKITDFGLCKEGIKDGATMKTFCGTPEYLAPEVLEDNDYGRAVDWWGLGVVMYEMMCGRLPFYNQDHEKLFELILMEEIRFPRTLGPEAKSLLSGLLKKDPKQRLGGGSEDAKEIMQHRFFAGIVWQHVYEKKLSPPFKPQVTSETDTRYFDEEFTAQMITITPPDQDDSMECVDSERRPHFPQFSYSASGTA

## Ph(C═O)-RPRTSSF-PEG(11)-3Am-VBL (N-benzoyl; PEG(11) linker; vinblastine conjugate)
[1]
  EC50: 20 to 100 nM
MCF-7 breast carcinoma
  EC50: 20 to 100 nM
tubulin
  Ave. MPA Act.: C (C>80)
HUVEC
  EC50: 20 to 100 nM
[2]
  EC50: 20 to 100 nM
Akt
  Ave. Akt Kinase Act.: C (C>40)

## Pv-GRPRTSSFAEG-PEG(13)-10Ca-PXL (Piv-GRPRTSSFAEG-{PEG(13)-10Ca‑PXL}; also: TFA salt)
[1]
  EC50: > 100 nM
MCF-7 breast carcinoma
  EC50: > 100 nM
tubulin
  Ave. MPA Act.: C (C>80)
HUVEC
  EC50: > 100 nM
[2]
  EC50: > 100 nM
Akt
  Ave. Akt Kinase Act.: C (C>40)

## CBz-GRPRTSSFAE(Bzl)G-3Am-VBL
MCF-7 cells
  EC50: 20 to 100 nM
HT-29 cells
  EC50: 20 to 100 nM
[1]
  EC50: 20 to 100 nM
MCF-7 breast carcinoma
  EC50: 20 to 100 nM
tubulin
  Ave. MPA Act.: B (B=50-80)
HUVEC
  EC50: < 20 nM
[2]
  EC50: 20 to 100 nM
Akt
  Ave. Akt Kinase Act.: C (C>40)

## Ac-RPRTSSF-PEG(13)-10Ca-PXL (N-acetyl; PEG(13) linker; paclitaxel conjugate)
MCF-7 cells
  EC50: > 100 nM
HT-29 cells
  EC50: 20 to 100 nM
[1]
  EC50: > 100 nM
MCF-7 breast carcinoma
  EC50: > 100 nM
tubulin
  Ave. MPA Act.: C (C>80)
HUVEC
  EC50: > 100 nM
[2]
  EC50: > 100 nM
Akt
  Ave. Akt Kinase Act.: C (C>40)

## Pv-RSRTSSF-PEG(11)-3Am-VBL (Piv-RSRTSSF-{PEG(11)-3Am‑VBL}; also: 2 TFA salt)
[1]
  EC50: > 100 nM
MCF-7 breast carcinoma
  EC50: > 100 nM
tubulin
  Ave. MPA Act.: C (C>80)
HUVEC
  EC50: > 100 nM
[2]
  EC50: > 100 nM
Akt
  Ave. Akt Kinase Act.: C (C>40)

## Ac-GRPRTSSFAEG-3Am-VBL (Ac-GRPRTSSFAEG-{3Am-VBL}; reading uncertain; also: TFA salt, printed as Ac-GRPRTSSFAEG-3Am-VBL)
[1]
  EC50: 20 to 100 nM
MCF-7 breast carcinoma
  EC50: 20 to 100 nM
tubulin
  Ave. MPA Act.: C (C>80)
HUVEC
  EC50: < 20 nM
[2]
  EC50: 20 to 100 nM
Akt
  Ave. Akt Kinase Act.: C (C>40)

## CBz-RPRTSSF-PEG(13)-10Ca-PXL (N-CBz; PEG(13) linker; paclitaxel conjugate)
MCF-7 cells
  EC50: 20 to 100 nM
HT-29 cells
  EC50: 20 to 100 nM
[1]
  EC50: > 100 nM
MCF-7 breast carcinoma
  EC50: > 100 nM
tubulin
  Ave. MPA Act.: C (C>80)
HUVEC
  EC50: > 100 nM
[2]
  EC50: 20 to 100 nM
Akt
  Ave. Akt Kinase Act.: C (C>40)
